Where “and” joins values, the source holds several entries; their conditions need not be identical. Identical values can stand only once.
Key:
[1] = target: T1, Bromodomain-containing protein 4 (Homo sapiens, UniProt O60885); assay: Alphascreen assay. Binding to BRD4A (domain start/stop: N44-E168) by alphascreen assay
[2] = target: T2, CREB-binding protein (Homo sapiens, UniProt Q92793); assay: Alphascreen assay. Binding to CREBBPA (domain start/stop: R1081-G1197) by alphascreen assay
[3] = target: Bromodomain-containing protein 3 (Homo sapiens) (UniProt Q15059); assay: Thermal Shift Assay. Domain start/stop: P24-E144; details: Compound concentration 10.0 uM, Protein concentration 2.0 uM
[4] = target: Protein polybromo-1 (Homo sapiens) (UniProt Q86U86); assay: Thermal Shift Assay. Domain start/stop: H23-D159; details: Compound concentration 10.0 uM, Protein concentration 2.0 uM
[5] = target: Protein polybromo-1 (Homo sapiens) (UniProt Q86U86); assay: Thermal Shift Assay. Domain start/stop: R487-D598; details: Compound concentration 10.0 uM, Protein concentration 2.0 uM
[6] = target: Tripartite motif-containing protein 66 (Homo sapiens) (UniProt O15016); assay: Thermal Shift Assay. Domain start/stop: M1091-S1218; details: Compound concentration 10.0 uM, Protein concentration 2.0 uM
[7] = target: PH-interacting protein (Homo sapiens) (UniProt Q8WWQ0); details: Compound concentration 50.0 uM, Protein concentration 0.025 uM
[8] = target: Histone-lysine N-methyltransferase ASH1L (Homo sapiens) (UniProt Q9NR48); details: Compound concentration 10.0 uM, Protein concentration 2.0 uM
[9] = target: ATPase family AAA domain-containing protein 2 (Homo sapiens) (UniProt Q6PL18); details: Compound concentration 10.0 uM, Protein concentration 2.0 uM
[10] = target: ATPase family AAA domain-containing protein 2B (Homo sapiens) (UniProt Q9ULI0); details: Compound concentration 10.0 uM, Protein concentration 2.0 uM
[11] = target: Bromodomain adjacent to zinc finger domain protein 1A (Homo sapiens) (UniProt Q9NRL2); details: Compound concentration 10.0 uM, Protein concentration 2.0 uM
[12] = target: Bromodomain adjacent to zinc finger domain protein 2A (Homo sapiens) (UniProt Q9UIF9); details: Compound concentration 10.0 uM, Protein concentration 2.0 uM
[13] = target: Bromodomain adjacent to zinc finger domain protein 2B (Homo sapiens) (UniProt Q9UIF8); details: Compound concentration 10.0 uM, Protein concentration 2.0 uM
[14] = target: Nucleosome-remodeling factor subunit BPTF (Homo sapiens) (UniProt Q12830); details: Compound concentration 10.0 uM, Protein concentration 2.0 uM
[15] = target: Bromodomain-containing protein 1 (Homo sapiens) (UniProt O95696); details: Compound concentration 10.0 uM, Protein concentration 2.0 uM
[16] = target: Bromodomain-containing protein 2 (Homo sapiens) (UniProt P25440); details: Compound concentration 10.0 uM, Protein concentration 2.0 uM
[17] = target: Bromodomain-containing protein 2 (Homo sapiens) (UniProt P25440); details: Compound concentration 10.0 uM, Protein concentration 2.0 uM; remark: listed apart in the source
[18] = target: Bromodomain-containing protein 3 (Homo sapiens) (UniProt Q15059); details: Compound concentration 10.0 uM, Protein concentration 2.0 uM
[19] = target: T1, Bromodomain-containing protein 4; details: Compound concentration 10.0 uM, Protein concentration 2.0 uM
[20] = target: Bromodomain-containing protein 9 (Homo sapiens) (UniProt Q9H8M2); details: Compound concentration 10.0 uM, Protein concentration 2.0 uM
[21] = target: Bromodomain testis-specific protein (Homo sapiens) (UniProt Q58F21); details: Compound concentration 10.0 uM, Protein concentration 2.0 uM
[22] = target: Bromodomain testis-specific protein (Homo sapiens) (UniProt Q58F21); details: Compound concentration 10.0 uM, Protein concentration 2.0 uM; remark: listed apart in the source
[23] = target: Bromodomain and PHD finger-containing protein 3 (Homo sapiens) (UniProt Q9ULD4); details: Compound concentration 10.0 uM, Protein concentration 2.0 uM
[24] = target: Bromodomain and WD repeat-containing protein 1 (Homo sapiens) (UniProt Q9NSI6); details: Compound concentration 10.0 uM, Protein concentration 2.0 uM
[25] = target: Bromodomain and WD repeat-containing protein 3 (Homo sapiens) (UniProt Q6RI45); details: Compound concentration 10.0 uM, Protein concentration 2.0 uM
[26] = target: Chromatin remodeling regulator CECR2 (Homo sapiens) (UniProt Q9BXF3); details: Compound concentration 10.0 uM, Protein concentration 2.0 uM
[27] = target: T2, CREB-binding protein; details: Compound concentration 10.0 uM, Protein concentration 2.0 uM
[28] = target: Histone acetyltransferase p300 (Homo sapiens) (UniProt Q09472); details: Compound concentration 10.0 uM, Protein concentration 2.0 uM
[29] = target: Histone acetyltransferase KAT2A (Homo sapiens) (UniProt Q92830); details: Compound concentration 10.0 uM, Protein concentration 2.0 uM
[30] = target: Histone acetyltransferase KAT2B (Homo sapiens) (UniProt Q92831); details: Compound concentration 10.0 uM, Protein concentration 2.0 uM
[31] = target: Protein polybromo-1 (Homo sapiens) (UniProt Q86U86); details: Compound concentration 10.0 uM, Protein concentration 2.0 uM
[32] = target: Protein polybromo-1 (Homo sapiens) (UniProt Q86U86); details: Compound concentration 10.0 uM, Protein concentration 2.0 uM; remark: listed apart in the source
[33] = target: Protein polybromo-1 (Homo sapiens) (UniProt Q86U86); details: Compound concentration 10.0 uM, Protein concentration 2.0 uM; remark: listed apart in the source
[34] = target: Protein polybromo-1 (Homo sapiens) (UniProt Q86U86); details: Compound concentration 10.0 uM, Protein concentration 2.0 uM; remark: listed apart in the source
[35] = target: PH-interacting protein (Homo sapiens) (UniProt Q8WWQ0); details: Compound concentration 10.0 uM, Protein concentration 2.0 uM
[36] = target: SWI/SNF-related matrix-associated actin-dependent regulator of chromatin subfamily A member 2 (Homo sapiens) (UniProt P51531); details: Compound concentration 10.0 uM, Protein concentration 2.0 uM
[37] = target: SWI/SNF-related matrix-associated actin-dependent regulator of chromatin subfamily A member 4 (Homo sapiens) (UniProt P51532); details: Compound concentration 10.0 uM, Protein concentration 2.0 uM
[38] = target: Nuclear body protein SP140 (Homo sapiens) (UniProt Q13342); details: Compound concentration 10.0 uM, Protein concentration 2.0 uM
[39] = target: Nuclear body protein SP140-like protein (Homo sapiens) (UniProt Q9H930); details: Compound concentration 10.0 uM, Protein concentration 2.0 uM
[40] = target: Transcription initiation factor TFIID subunit 1 (Homo sapiens) (UniProt P21675); details: Compound concentration 10.0 uM, Protein concentration 2.0 uM
[41] = target: Transcription initiation factor TFIID subunit 1 (Homo sapiens) (UniProt P21675); details: Compound concentration 10.0 uM, Protein concentration 2.0 uM; remark: listed apart in the source
[42] = target: Transcription initiation factor TFIID subunit 1-like (Homo sapiens) (UniProt Q8IZX4); details: Compound concentration 10.0 uM, Protein concentration 2.0 uM
[43] = target: Transcription initiation factor TFIID subunit 1-like (Homo sapiens) (UniProt Q8IZX4); details: Compound concentration 10.0 uM, Protein concentration 2.0 uM; remark: listed apart in the source
[44] = target: Transcription intermediary factor 1-alpha (Homo sapiens) (UniProt O15164); details: Compound concentration 10.0 uM, Protein concentration 2.0 uM
[45] = target: Transcription intermediary factor 1-beta (Homo sapiens) (UniProt Q13263); details: Compound concentration 10.0 uM, Protein concentration 2.0 uM
[46] = target: Peregrin (Homo sapiens) (UniProt P55201); details: Compound concentration 10.0 uM, Protein concentration 2.0 uM

Chain of Bromodomain-containing protein 2 (Homo sapiens) (P25440 whole entry, looked up): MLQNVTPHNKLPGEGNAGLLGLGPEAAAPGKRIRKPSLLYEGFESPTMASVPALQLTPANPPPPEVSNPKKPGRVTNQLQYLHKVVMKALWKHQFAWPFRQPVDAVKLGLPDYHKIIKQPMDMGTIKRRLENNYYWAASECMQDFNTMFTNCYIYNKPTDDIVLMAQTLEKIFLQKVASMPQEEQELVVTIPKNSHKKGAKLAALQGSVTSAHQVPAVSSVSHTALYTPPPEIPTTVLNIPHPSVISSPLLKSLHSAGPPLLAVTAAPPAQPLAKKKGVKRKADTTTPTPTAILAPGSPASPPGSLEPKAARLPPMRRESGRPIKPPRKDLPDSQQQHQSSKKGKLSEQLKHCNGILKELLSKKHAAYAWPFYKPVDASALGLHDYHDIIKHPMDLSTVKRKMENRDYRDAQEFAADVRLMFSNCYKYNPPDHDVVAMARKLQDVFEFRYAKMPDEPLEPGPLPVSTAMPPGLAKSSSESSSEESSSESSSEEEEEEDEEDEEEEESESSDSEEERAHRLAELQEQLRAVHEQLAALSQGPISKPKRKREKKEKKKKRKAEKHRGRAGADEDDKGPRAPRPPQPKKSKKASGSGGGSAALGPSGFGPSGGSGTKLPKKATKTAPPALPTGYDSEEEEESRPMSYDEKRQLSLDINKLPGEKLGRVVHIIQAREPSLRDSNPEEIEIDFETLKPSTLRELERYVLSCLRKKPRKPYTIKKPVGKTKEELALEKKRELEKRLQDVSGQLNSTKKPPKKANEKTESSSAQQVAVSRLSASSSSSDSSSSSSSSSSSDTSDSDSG
Chain of Bromodomain-containing protein 3 (Homo sapiens) (Q15059 2-726 limits assumed): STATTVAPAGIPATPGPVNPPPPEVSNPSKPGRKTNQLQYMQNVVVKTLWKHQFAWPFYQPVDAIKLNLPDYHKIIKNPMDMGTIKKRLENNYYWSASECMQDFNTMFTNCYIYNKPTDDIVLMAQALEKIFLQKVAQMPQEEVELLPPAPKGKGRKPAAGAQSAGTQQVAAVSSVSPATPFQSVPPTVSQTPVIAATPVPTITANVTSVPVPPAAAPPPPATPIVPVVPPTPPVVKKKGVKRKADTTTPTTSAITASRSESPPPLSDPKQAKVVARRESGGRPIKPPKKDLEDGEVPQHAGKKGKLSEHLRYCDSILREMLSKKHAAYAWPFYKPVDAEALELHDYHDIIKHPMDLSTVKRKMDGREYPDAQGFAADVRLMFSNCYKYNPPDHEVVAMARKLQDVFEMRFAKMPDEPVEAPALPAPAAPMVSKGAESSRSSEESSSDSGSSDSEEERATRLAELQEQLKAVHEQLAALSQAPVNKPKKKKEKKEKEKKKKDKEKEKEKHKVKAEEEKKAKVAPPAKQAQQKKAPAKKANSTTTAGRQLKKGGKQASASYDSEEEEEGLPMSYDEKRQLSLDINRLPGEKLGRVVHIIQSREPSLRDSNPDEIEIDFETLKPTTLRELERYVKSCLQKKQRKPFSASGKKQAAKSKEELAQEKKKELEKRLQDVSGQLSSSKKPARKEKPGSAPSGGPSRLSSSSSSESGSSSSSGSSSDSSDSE
Chain of Protein polybromo-1 (Homo sapiens) (Q86U86 whole entry): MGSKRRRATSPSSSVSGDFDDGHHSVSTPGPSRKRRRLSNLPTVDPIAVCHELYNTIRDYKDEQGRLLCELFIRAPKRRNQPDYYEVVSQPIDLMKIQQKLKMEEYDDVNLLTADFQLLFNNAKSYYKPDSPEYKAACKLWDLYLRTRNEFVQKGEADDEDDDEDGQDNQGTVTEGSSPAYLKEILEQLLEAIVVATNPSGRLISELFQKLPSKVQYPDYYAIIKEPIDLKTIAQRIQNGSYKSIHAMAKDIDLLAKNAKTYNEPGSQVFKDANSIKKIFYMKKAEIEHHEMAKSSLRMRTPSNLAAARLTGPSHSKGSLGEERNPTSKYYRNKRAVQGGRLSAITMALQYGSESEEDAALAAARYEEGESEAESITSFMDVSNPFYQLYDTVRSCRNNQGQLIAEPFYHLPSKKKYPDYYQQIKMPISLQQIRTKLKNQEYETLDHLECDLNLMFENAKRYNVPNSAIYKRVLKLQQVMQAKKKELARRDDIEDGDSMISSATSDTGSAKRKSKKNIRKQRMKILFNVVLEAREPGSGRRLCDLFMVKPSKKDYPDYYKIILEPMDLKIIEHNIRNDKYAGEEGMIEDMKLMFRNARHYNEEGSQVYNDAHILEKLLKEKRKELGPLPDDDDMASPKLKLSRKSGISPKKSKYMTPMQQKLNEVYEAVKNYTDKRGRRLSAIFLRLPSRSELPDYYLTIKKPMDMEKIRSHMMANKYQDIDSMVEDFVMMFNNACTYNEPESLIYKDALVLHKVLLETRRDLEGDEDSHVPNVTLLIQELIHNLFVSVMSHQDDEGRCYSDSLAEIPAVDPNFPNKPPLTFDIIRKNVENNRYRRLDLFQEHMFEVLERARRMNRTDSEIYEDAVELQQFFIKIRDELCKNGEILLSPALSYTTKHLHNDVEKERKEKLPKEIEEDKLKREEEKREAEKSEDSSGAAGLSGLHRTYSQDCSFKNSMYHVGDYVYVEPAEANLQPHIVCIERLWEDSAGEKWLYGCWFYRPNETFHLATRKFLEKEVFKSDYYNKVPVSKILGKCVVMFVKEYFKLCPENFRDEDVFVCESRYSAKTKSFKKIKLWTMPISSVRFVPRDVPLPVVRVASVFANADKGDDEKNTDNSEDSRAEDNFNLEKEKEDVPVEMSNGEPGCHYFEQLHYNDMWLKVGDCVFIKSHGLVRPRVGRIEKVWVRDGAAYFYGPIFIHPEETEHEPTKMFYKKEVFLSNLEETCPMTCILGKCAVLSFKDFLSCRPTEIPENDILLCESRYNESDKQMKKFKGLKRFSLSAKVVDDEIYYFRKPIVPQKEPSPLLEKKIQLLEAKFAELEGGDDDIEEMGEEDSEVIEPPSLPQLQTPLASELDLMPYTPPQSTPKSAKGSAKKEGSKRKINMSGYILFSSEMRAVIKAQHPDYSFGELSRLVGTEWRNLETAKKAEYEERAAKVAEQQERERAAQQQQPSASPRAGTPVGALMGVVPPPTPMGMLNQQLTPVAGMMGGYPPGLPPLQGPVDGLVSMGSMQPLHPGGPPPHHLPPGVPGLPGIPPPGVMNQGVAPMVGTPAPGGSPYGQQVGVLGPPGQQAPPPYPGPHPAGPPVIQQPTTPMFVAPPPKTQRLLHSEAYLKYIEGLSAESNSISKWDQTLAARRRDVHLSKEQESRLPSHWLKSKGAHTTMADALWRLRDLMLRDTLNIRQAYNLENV
Chain of Histone acetyltransferase KAT2B (Homo sapiens) (Q92831 whole entry, looked up): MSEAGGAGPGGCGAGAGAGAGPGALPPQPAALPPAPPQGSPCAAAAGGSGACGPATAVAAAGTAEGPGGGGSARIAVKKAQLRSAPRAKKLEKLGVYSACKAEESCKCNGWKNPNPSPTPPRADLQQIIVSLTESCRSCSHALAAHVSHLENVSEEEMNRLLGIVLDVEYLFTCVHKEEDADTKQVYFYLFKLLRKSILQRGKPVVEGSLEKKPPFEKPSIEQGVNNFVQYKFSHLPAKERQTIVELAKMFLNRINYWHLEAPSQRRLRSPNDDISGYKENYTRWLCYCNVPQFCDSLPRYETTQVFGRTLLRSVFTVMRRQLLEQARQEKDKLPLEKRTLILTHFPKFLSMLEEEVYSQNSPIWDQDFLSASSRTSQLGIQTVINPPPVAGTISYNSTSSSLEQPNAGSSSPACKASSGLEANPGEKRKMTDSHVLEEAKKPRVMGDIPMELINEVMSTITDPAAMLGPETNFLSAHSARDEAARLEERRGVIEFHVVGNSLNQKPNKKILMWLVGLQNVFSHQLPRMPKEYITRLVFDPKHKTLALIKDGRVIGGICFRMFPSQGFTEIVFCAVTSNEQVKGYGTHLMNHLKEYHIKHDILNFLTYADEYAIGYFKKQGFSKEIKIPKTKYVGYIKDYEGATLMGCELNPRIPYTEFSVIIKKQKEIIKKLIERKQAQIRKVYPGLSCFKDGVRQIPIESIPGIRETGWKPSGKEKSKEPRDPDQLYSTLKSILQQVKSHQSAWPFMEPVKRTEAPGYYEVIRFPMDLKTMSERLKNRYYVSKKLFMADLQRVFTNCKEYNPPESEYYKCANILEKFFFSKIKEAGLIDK
Chain of Bromodomain-containing protein 9 (Homo sapiens) (Q9H8M2 whole entry): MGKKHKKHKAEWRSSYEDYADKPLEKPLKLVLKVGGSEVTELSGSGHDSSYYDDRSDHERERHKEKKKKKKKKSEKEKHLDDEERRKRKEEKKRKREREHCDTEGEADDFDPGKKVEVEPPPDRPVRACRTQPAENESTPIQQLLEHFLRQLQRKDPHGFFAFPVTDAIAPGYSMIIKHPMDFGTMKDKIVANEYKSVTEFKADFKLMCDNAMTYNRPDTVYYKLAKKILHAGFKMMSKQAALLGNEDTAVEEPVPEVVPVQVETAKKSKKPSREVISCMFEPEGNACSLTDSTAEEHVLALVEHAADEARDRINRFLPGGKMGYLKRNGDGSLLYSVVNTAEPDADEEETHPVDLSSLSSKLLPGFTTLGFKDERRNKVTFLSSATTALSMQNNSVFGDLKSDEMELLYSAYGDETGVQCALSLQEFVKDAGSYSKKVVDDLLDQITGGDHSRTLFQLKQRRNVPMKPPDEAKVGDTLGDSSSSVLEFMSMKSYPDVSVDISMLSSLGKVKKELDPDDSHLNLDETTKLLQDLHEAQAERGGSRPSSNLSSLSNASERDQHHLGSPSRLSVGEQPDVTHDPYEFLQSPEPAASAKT

IC50 [1]: 2460 nM
IC50 [2]: 324 nM
ΔTm [3]: 1.35 °C and 2.27 °C
ΔTm [4]: 1.87 °C
ΔTm [5]: 1.11 °C
ΔTm [6]: 0.65 °C
inhibition [7]: 11.6% and 13.1%
ΔTm [8]: 0.59 °C
ΔTm [9]: 0.94 °C
ΔTm [10]: 0.16 °C
ΔTm [11]: 1.83 °C
ΔTm [12]: 0.84 °C
ΔTm [13]: 0.11 °C and 0.34 °C
ΔTm [14]: 0.75 °C
ΔTm [15]: 0.86 °C
ΔTm [16]: 2.1 °C and 1.08 °C
ΔTm [17]: 1.23 °C
ΔTm [18]: 1.01 °C and 1.27 °C
ΔTm [19]: 0.77 °C and 0.68 °C
ΔTm [20]: 0.93 °C
ΔTm [21]: 0.73 °C
ΔTm [22]: 0.3 °C
ΔTm [23]: 0.92 °C
ΔTm [24]: 0.28 °C
ΔTm [25]: 1.86 °C
ΔTm [26]: 0.59 °C
ΔTm [27]: 6.8 °C and 8.01 °C and 8.5 °C
ΔTm [28]: 8.99 °C
ΔTm [29]: 0.84 °C
ΔTm [30]: -0.01 °C and 0.36 °C
ΔTm [31]: 0.4 °C and 0.01 °C
ΔTm [32]: -0.05 °C
ΔTm [33]: 0.34 °C
ΔTm [34]: 0.53 °C
ΔTm [35]: 1.07 °C
ΔTm [36]: 0.19 °C
ΔTm [37]: 0.56 °C
ΔTm [38]: 0.16 °C
ΔTm [39]: 1.3 °C
ΔTm [40]: 0.18 °C
ΔTm [41]: 0.37 °C
ΔTm [42]: 0.65 °C
ΔTm [43]: 0.3 °C
ΔTm [44]: 0.77 °C
ΔTm [45]: 0.1 °C
ΔTm [46]: 0.86 °C
Compound: CCC(=O)N1CCOc2c(cc(-c3ccc(OC)c(OC)c3)cc2OC[C@H]2CCCN(C)C2)C1
